Assay type in all cases: in vivo
For data set [1], the system named is EAE in C57BL/6 mice immunized with MOG peptide 35-55. Put plainly: Spinal cord foci of inflammation after oral ACTH in EAE mice. The following applies: Ex 1-A, control mock placebo group 4.72±0.34. How it is done:
Following administration, clinical outcome is measured in at least two ways: by comparing the difference between group active treatment scores and placebo group scores from day 26-33 post immunization, and comparing group mean scores directly (day 17-35 post-immunization). Following sacrifice, spinal cords are removed and evaluated independently for foci of inflammation by a blinded observer.

The test system is the same in data set [2]. Put plainly: Oral ACTH treatment of EAE mice, clinical score. Set-up: key to Clinical Score: 0 = no disease to 6 = paraplegia with severe weakness/ataxia. How it is done: EAE is a T cell mediated inflammatory autoimmune process of the CNS that resembles in some aspects the human demyelinating disease multiple sclerosis. It thus provides a useful animal model for the evaluation of potential therapies for MS. […] This protocol mimics clinical practice since patients are treated with ACTHAR® Gel after they experience a clinical exacerbation of their disease, albeit clinical treatment is via intramuscular injection.
Clinical severity is graded daily by a blinded observer as follows: 0=no disease; 1=minimal or mild hind limb weakness (associated with limp tail); 2=moderate hind limb weakness or mild ataxia (waddling gait and/or poor righting ability); 3=moderate to severe hind limb weakness; 4=severe hind limb weakness or moderate ataxia; 5=paraplegia with no more than moderate four limb weakness; 6=paraplegia with severe four limb weakness or severe ataxia. […]

The nature of data set [3]: Toxicity of oral ACTH administered over an extended time period. To be noted: orally administered to mice over an extended time period.

Where no end group is shown, it is not given here.

On to “SYSMEHFRWGKPVGKKRRPVKVYPDGAEDQLAEAFPLEF [ACTH]”, for which the “mean group inflammatory score (inflammatory foci, spinal cord)” value in data set [1] (10 microgram fed group, p<0.008) was determined as 3.05±0.3; in data set [1] (1000 microgram fed group, p<0.00002) it was 2.27±0.23. The “recovery from EAE attack compared to placebo, difference between group active treatment and placebo group scores” value in data set [2] (Ex 1-A, 10 or 1000 microgram oral dose, 10 microgram p<0.03, 1000 microgram p<0.05) is on record as “significantly improved recovery”. Moreover, in data set [2] (Ex 1-A, oral doses of 10, 100, and 1000 microgram), the “recovery compared to placebo, comparing group mean scores directly” value is recorded as “significantly faster recovery”. In addition, in data set [2] (Ex 1-B, 10 IU p<0.0001, 100 IU p<0.0003, 1000 IU p<0.0007), the “recovery from EAE attack compared to placebo, difference between group active treatment and group placebo scores” value is listed as “significantly improved recovery”. Moreover, the “recovery from EAE attack compared to placebo, comparing group mean scores directly” value in data set [2] (Ex 1-B, oral 10 and 1000 IU, 10 IU p<0.00001, 100 IU p<0.00006, 1000 IU p<0.00003) was “significantly improved recovery”. In addition, the “Clinical Score” value was determined as 1.38 in data set [2] (Table 1, Ex 1-A, ACTH 10 microgram oral daily, day 28, control 2.88); 1.38 in data set [2] (Table 1, Ex 1-A, ACTH 10 microgram oral daily, day 32, control 3); 1.375 in data set [2] (Table 1, Ex 1-A, ACTH 10 microgram oral daily, day 33, control 3); 1.38 in data set [2] (Table 1, Ex 1-A, ACTH 10 microgram oral daily, day 35, control 3.13); 2.5 in data set [2] (Table 1, Ex 1-A, ACTH 100 microgram oral daily, day 22, control 2.63); 1.13 in data set [2] (Table 2, Ex 1-B, 1000 IU oral daily, day 40, control […]). In addition, the “Clinical Score” value was 1.38 in data set [2] (Table 2, Ex 1-B, ACTH 10 IU oral daily, day 32, control […]); 1 in data set [2] (Table 2, Ex 1-B, ACTH 10 IU oral daily, day 33, control 2); 1.25 in data set [2] (Table 2, Ex 1-B, ACTH 10 IU oral daily, day 40, control […]); 1.38 in data set [2] (Table 2, Ex 1-B, ACTH 100 IU oral daily, day 32, control […]); 1.38 in data set [2] (Table 2, Ex 1-B, ACTH 100 IU oral daily, day 40, control […]). Besides, the toxicity entry in data set [3] is recorded as “no detectable toxicity”.

The record behind these values is patent US8758770B2 (Research Development Foundation, priority 2006, dated 2014).
